Consider 14 molecules from PubChem BioAssay (NCI).

Among the test systems are OVCAR-3 ovarian; MCF7 breast; T-47D breast; SW-620 colon; K-562 leukemia; PC-3 prostate; LOX IMVI melanoma; SK-MEL-28 melanoma; IGROV1 ovarian; NCI-H23 lung.
Common to all, as to assay: NCI-60 cell line screen, 48 h

SMILES strings stand for the structures.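 Where inhibition never reached the appropriate level, the endpoint shown equals the highest concentration tested. Otherwise, values were interpolated linearly from a five-concentration, 48-hour dose response in 96-well plates. TGI: concentration producing complete growth inhibition.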

Take `O=C1c2ccccc2CC12Cc1ccc3c(c1C2=O)CCCC3` (centres undefined): the TGI is more than 100 µM with OVCAR-3 ovarian; more than 100 µM with MCF7 breast; 9.59 µM in the experiment with T-47D breast; more than 100 µM in the experiment on SW-620 colon; more than 100 µM with K-562 leukemia; more than 100 µM in the experiment with PC-3 prostate. The TGI in the experiment on LOX IMVI melanoma, in the experiment on SK-MEL-28 melanoma and in the experiment with IGROV1 ovarian was more than 100 µM throughout.

With `Cc1ccc2c(c1)CC1(Cc3cc(C)ccc3C1=O)C2=O`, the TGI in the experiment with OVCAR-3 ovarian, in the experiment with NCI-H23 lung, with MCF7 breast, with T-47D breast, in the experiment with SW-620 colon and in the experiment with K-562 leukemia was more than 100 µM in each case. Also, the TGI in the experiment on PC-3 prostate, with LOX IMVI melanoma, with SK-MEL-28 melanoma and with IGROV1 ovarian was more than 100 µM throughout.

On to `NS(=O)(=O)c1ccc(Nc2c3ccccc3nc3c(C(=O)NC(CO)(CO)CO)cccc23)cc1`, for which the TGI was 0.339 µM in the experiment on OVCAR-3 ovarian; 0.318 µM in the experiment on NCI-H23 lung; 0.106 µM in the experiment with MCF7 breast; more than 1 µM in the experiment on T-47D breast; 0.435 µM in the experiment with SW-620 colon; 0.642 µM with K-562 leukemia. Also, the TGI in the experiment on PC-3 prostate was determined as 0.814 µM; in the experiment on LOX IMVI melanoma it was 0.286 µM; in the experiment on SK-MEL-28 melanoma, 0.576 µM; in the experiment on IGROV1 ovarian it was 0.506 µM.

Regarding `O=C1CC2(CCN(Cc3ccccc3)CC2)C(=O)N1N1CCCCC1`, the TGI in the experiment with OVCAR-3 ovarian, in the experiment with NCI-H23 lung, in the experiment with MCF7 breast, in the experiment with T-47D breast, with SW-620 colon and in the experiment with K-562 leukemia was more than 100 µM each time. The TGI in the experiment on PC-3 prostate, in the experiment with LOX IMVI melanoma, with SK-MEL-28 melanoma and in the experiment on IGROV1 ovarian was more than 100 µM throughout.

Take `CC(C)C1OC(=O)C(Cc2ccccc2)N(C)C(=O)C(C(C)C)OC(=O)C(Cc2ccccc2)N(C)C(=O)C(C(C)C)OC(=O)C(Cc2ccccc2)N(C)C1=O` (centres undefined): the TGI in the experiment with OVCAR-3 ovarian came to 1.79 µM; in the experiment on NCI-H23 lung, 2.62 µM; with MCF7 breast, 1.79 µM; in the experiment with T-47D breast it was 3.25 µM; with SW-620 colon it was 2.54 µM; in the experiment on K-562 leukemia it was 3.52 µM. For the same molecule, the TGI in the experiment on PC-3 prostate came out at 1.91 µM; with LOX IMVI melanoma, 2.1 µM; in the experiment with SK-MEL-28 melanoma it was 2.41 µM; in the experiment with IGROV1 ovarian it was 2.43 µM.

In the case of `CSC(SC)=C(C#N)C(=O)Nc1ccc(Cl)cc1`, the TGI was more than 100 µM in the experiment with OVCAR-3 ovarian; more than 100 µM in the experiment on NCI-H23 lung; more than 100 µM with MCF7 breast; 85.3 µM in the experiment on T-47D breast; more than 100 µM in the experiment on SW-620 colon; more than 100 µM in the experiment on K-562 leukemia. Further, the results for the TGI with PC-3 prostate, with LOX IMVI melanoma and in the experiment on SK-MEL-28 melanoma were more than 100 µM, 62.1 µM and more than 100 µM, respectively.

As for `O=[N+]([O-])C(/C=C(\Cl)[N+](=O)[O-])=C(N1CCOCC1)N1CCOCC1`, the TGI is 34.4 µM in the experiment on OVCAR-3 ovarian; more than 100 µM with NCI-H23 lung; 35.3 µM with MCF7 breast; 52.7 µM in the experiment on T-47D breast; 37.6 µM in the experiment on K-562 leukemia; more than 100 µM in the experiment with PC-3 prostate. The TGI in the experiment with LOX IMVI melanoma, in the experiment with SK-MEL-28 melanoma and with IGROV1 ovarian was more than 100 µM each time.

Consider `CN1N=C(c2ccncc2)OC1c1ccc(C(F)(F)F)cc1` (centres undefined), for which the TGI in the experiment with OVCAR-3 ovarian, with NCI-H23 lung, with MCF7 breast, in the experiment with T-47D breast, in the experiment with SW-620 colon and with K-562 leukemia was more than 100 µM throughout. Also, the TGI in the experiment on PC-3 prostate, in the experiment on LOX IMVI melanoma, in the experiment on SK-MEL-28 melanoma and in the experiment with IGROV1 ovarian was more than 100 µM in each case.

Take `NC1CC(=O)c2c(I)sc(I)c21` (centres undefined): the TGI with OVCAR-3 ovarian is 38.7 µM; with NCI-H23 lung, 35 µM; with MCF7 breast, more than 67.7 µM; in the experiment with T-47D breast, more than 73 µM; with SW-620 colon it was 46.1 µM; in the experiment on K-562 leukemia, more than 100 µM. Besides, the TGI is 42.8 µM with PC-3 prostate, 27.2 µM in the experiment with LOX IMVI melanoma, 43.2 µM in the experiment with SK-MEL-28 melanoma and 33.1 µM in the experiment with IGROV1 ovarian.

In the case of `C=CCSC1=N/C(=C\c2ccc(C)cc2)C(=O)N1CC=C`, the TGI is more than 100 µM with OVCAR-3 ovarian; more than 100 µM with NCI-H23 lung; 55.5 µM in the experiment on MCF7 breast; 78.7 µM in the experiment on T-47D breast; more than 100 µM with SW-620 colon; 44.9 µM in the experiment on K-562 leukemia. The TGI in the experiment on PC-3 prostate is 70 µM; in the experiment with LOX IMVI melanoma, 82.3 µM; in the experiment with SK-MEL-28 melanoma, more than 100 µM; with IGROV1 ovarian, more than 100 µM.

For the molecule `CCOC(=O)/C(C(=O)c1ccc[nH]1)=C1/CCCN1C`, the TGI in the experiment with OVCAR-3 ovarian, in the experiment on NCI-H23 lung, in the experiment on MCF7 breast, with T-47D breast, in the experiment with SW-620 colon and in the experiment on K-562 leukemia was more than 100 µM each time. Moreover, the TGI in the experiment with PC-3 prostate, with LOX IMVI melanoma, in the experiment on SK-MEL-28 melanoma and in the experiment on IGROV1 ovarian was more than 100 µM in each case.

As to `O=C(OC1C#CCSCC#C/C=C\1)c1ccc2c(c1)C(=O)c1ccccc1C2=O` (centres undefined), the TGI in the experiment on OVCAR-3 ovarian, in the experiment with NCI-H23 lung, with MCF7 breast, in the experiment with T-47D breast, in the experiment with SW-620 colon and in the experiment on K-562 leukemia was more than 100 µM throughout. The TGI in the experiment on PC-3 prostate, in the experiment with LOX IMVI melanoma, in the experiment with SK-MEL-28 melanoma and in the experiment with IGROV1 ovarian was more than 100 µM each time.

As for `O=C1c2cccc3cc([N+](=O)[O-])cc(c23)C(=O)N1c1ccc(OCCN2CCCC2)cc1`, the TGI with NCI-H23 lung is 39.7 µM; with MCF7 breast, 38.3 µM; in the experiment with T-47D breast, more than 100 µM; in the experiment on SW-620 colon it was 95.2 µM; in the experiment on PC-3 prostate it was more than 100 µM; in the experiment with LOX IMVI melanoma it was 34.6 µM. Moreover, the TGI in the experiment on SK-MEL-28 melanoma worked out at 45.9 µM; in the experiment on IGROV1 ovarian, 41.9 µM.

In the case of `CC1(C)OCC(/C=C\C(O)CC2(C)OCCO2)CO1` (centres undefined), the TGI in the experiment with OVCAR-3 ovarian, with MCF7 breast, in the experiment on T-47D breast, in the experiment on SW-620 colon, with K-562 leukemia and in the experiment with PC-3 prostate was more than 100 µM each time. For the same molecule, the TGI in the experiment on LOX IMVI melanoma, in the experiment with SK-MEL-28 melanoma and in the experiment with IGROV1 ovarian was more than 100 µM in each case.
